Assay results: ChEMBL document CHEMBL1201862, “PubChem BioAssay data set” (2004)
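Values below derive from 48-hour exposures of cells grown in 96-well plates, with endpoints linearly interpolated between the two concentrations bracketing the appropriate inhibition level. At the GI50, growth is halved.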 Active and inactive are the calls of the source. Cut-off read from the data, not from the text of the source: active = GI50 up to about 1.1 µM and inactive = higher.

How the values were obtained:
Test in all cases: NCI tumour cell line growth inhibition, 48 h
[1] = tested on: A549
[2] = tested on: CCRF-CEM
[3] = tested on: DMS-273
[4] = tested on: EKVX
[5] = tested on: HCC 2998
[6] = tested on: HCT-116
[7] = tested on: HOP-62
[8] = tested on: HOP-92
[9] = tested on: HT-29
[10] = tested on: KM12
[11] = tested on: NCI-H226
[12] = tested on: NCI-H460
[13] = tested on: OVCAR-3
[14] = tested on: OVCAR-8
[15] = tested on: RPMI-8226
[16] = tested on: SK-MEL-28
[17] = tested on: SK-MEL-2
[18] = tested on: SNB-19

Row | Structure (SMILES) | GI50 [1] | GI50 [2] | GI50 [3] | GI50 [4] | GI50 [5] | GI50 [6] | GI50 [7] | GI50 [8] | GI50 [9] | GI50 [10] | GI50 [11] | GI50 [12] | GI50 [13] | GI50 [14] | GI50 [15] | GI50 [16] | GI50 [17] | GI50 [18]
1 | COc1ccc2c3c([nH]c2c1CC=C(C)C)C(=O)C=C(C)C3=O | > 25 µM (inactive) | 8.36 µM (inactive) | > 25 µM (inactive) | > 25 µM (inactive) | > 25 µM (inactive) | 16.2 µM (inactive) | > 25 µM (inactive) | > 25 µM (inactive) | > 25 µM (inactive) | > 25 µM (inactive) | > 25 µM (inactive) | > 25 µM (inactive) | > 25 µM (inactive) | > 25 µM (inactive) | > 25 µM (inactive) | > 25 µM (inactive) | > 25 µM (inactive) | > 25 µM (inactive)
2 | Cc1cc(Br)cc(C)c1NC(=O)C(=O)C(C(=O)c1ccc2ccccc2c1)C1OC(=O)c2ccccc21 (stereo not drawn) | 22.4 µM (inactive) | 3.94 µM (inactive) | 11 µM (inactive) | 19.5 µM (inactive) | 11 µM (inactive) | 8.91 µM (inactive) | 12.2 µM (inactive) | 1.58 µM (inactive) | 18.2 µM (inactive) | 15.5 µM (inactive) | 4.85 µM (inactive) | 4.66 µM (inactive) | 19.5 µM (inactive) | 7.18 µM (inactive) | 5.94 µM (inactive) | 8.97 µM (inactive) | 16 µM (inactive) | 8 µM (inactive)
3 | COc1ccc(COC2CC(OC)OC(C)C2OC(=O)c2ccccc2)cc1 (stereo not drawn) | 33 µM (inactive) | 30.3 µM (inactive) | 39.4 µM (inactive) | 70.1 µM (inactive) | 43.1 µM (inactive) | 28.6 µM (inactive) | > 73.5 µM (inactive) | 50 µM (inactive) | 16.6 µM (inactive) | 34.8 µM (inactive) | 21.7 µM (inactive) | 36.7 µM (inactive) | 31.9 µM (inactive) | 31.6 µM (inactive) | 18.5 µM (inactive) | 41.2 µM (inactive) | 54 µM (inactive) | > 64.9 µM (inactive)
4 | CC(C)(CN1C(=O)C(Cl)=C(Cl)C1=O)CN1C(=O)C(Cl)=C(Cl)C1=O | 35.5 µM (inactive) | 0.264 µM (active) | 6.92 µM (inactive) | 19.9 µM (inactive) | 12 µM (inactive) | 11.5 µM (inactive) | 22.1 µM (inactive) | 7.64 µM (inactive) | 13.2 µM (inactive) | 24.2 µM (inactive) | 22.5 µM (inactive) | 35 µM (inactive) | 8.02 µM (inactive) | 6.34 µM (inactive) | 1.71 µM (inactive) | 7.48 µM (inactive) | 18.8 µM (inactive) | 23 µM (inactive)
5 | CC(=O)/C(=N\O)C(=O)NCCc1ccccc1 | 98.6 µM (inactive) | 76.4 µM (inactive) | 55.1 µM (inactive) | > 100 µM (inactive) | 66.5 µM (inactive) | 46 µM (inactive) | > 100 µM (inactive) | > 100 µM (inactive) | 83.2 µM (inactive) | 58.3 µM (inactive) | > 100 µM (inactive) | 41.6 µM (inactive) | > 100 µM (inactive) | > 100 µM (inactive) | 57.7 µM (inactive) | > 100 µM (inactive) | > 100 µM (inactive) | > 100 µM (inactive)
6 | Cn1cnc([N+](=O)[O-])c1Sc1nnc(-c2ccc(Cl)cc2)n1C | 48.9 µM (inactive) | 3.69 µM (inactive) | 16.4 µM (inactive) | 5.79 µM (inactive) | 17.9 µM (inactive) | 13.1 µM (inactive) | > 100 µM (inactive) | 12.1 µM (inactive) | 15 µM (inactive) | 20.1 µM (inactive) | 21.2 µM (inactive) | 20.7 µM (inactive) | 13.9 µM (inactive) | 17.5 µM (inactive) | 16.4 µM (inactive) | 14.2 µM (inactive) | 15.5 µM (inactive) | 98.2 µM (inactive)
